Results on 32 molecules are retold here after PubChem BioAssay (NCI).

Common to all, as to experiment: growth of human tumour cells (NCI), 48 h
The subject of assay [1] is HOP-62 NSCLC.
For assay [2], the system named is MDA-MB-435.
Assay [3] relates to PC-3 prostate.
Assay [4] relates to OVCAR-4 ovarian.
Assay [5] deals with HL-60(TB) leukemia.
Assay [6] has as its system SR leukemia.
Assay [7] deals with SK-MEL-2 melanoma.
The subject of assay [8] is SF-268 CNS.
Assay [9] has as its system NCI-H226 lung.

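Each compound was tested at five concentrations against cells in 96-well plates for 48 hours. Definition used: TGI = concentration required for complete inhibition of growth.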 Where a SMILES comes first, the peptide text is derived from it. The star is where a group is joined. Cbz = O=C(OCc1ccccc1)*

Consider `O=C(O)CCC(NC(=O)OCc1ccccc1)C(=O)NC(Cc1cnc[nH]1)C(=O)O` (stereo not drawn) (Cbz-Glu-His-OH; configuration not given here), for which the TGI in assay [1], in assay [2], in assay [3], in assay [4], in assay [5] and in assay [6] was greater than 100 µM in each case. Moreover, the TGI in [7], in assay [8] and in [9] was greater than 100 µM each time.
In the case of `N#CCCN(C(=O)Nc1ccccc1)[C@H]1CCCC[C@@H]1N(C(=O)Nc1ccccc1)c1ccccc1`, the TGI in assay [1], in [2], in assay [3], in assay [4], in [6] and in assay [7] was greater than 100 µM throughout. The TGI in [9] is greater than 100 µM.
Consider `O=C1CCCC1CN1CCCC1` (stereo unspecified), for which the TGI in [1] is greater than 100 µM; in [2] it was 26.3 µM; in assay [3] it was 35.2 µM; in [4], 4.32 µM; in assay [5], 3.02 µM; in assay [6] it was 1.16 µM. Also, the TGI in [7] is 18.5 µM; in assay [8] it was 48.5 µM; in assay [9], greater than 100 µM.
Consider `CC(CO)(CO)N1C(=O)C2C3C=CC(C3)C2C1=O` (stereo unspecified), for which the TGI in assay [1], in assay [2], in assay [3], in assay [4], in [5] and in assay [6] was greater than 100 µM throughout. For the same molecule, the TGI in assay [7], in assay [8] and in assay [9] was greater than 100 µM in each case.
On to `Cc1nc2c(nc1C)-c1[nH]c3c(c1C(=O)C2=O)CCCC3=O`, for which the TGI in [1] came out at 6.76 µM; in assay [2] it was 1.48 µM; in [3], 15.7 µM; in [4], 3.04 µM; in assay [5], 5.78 µM; in assay [6] it was 6.4 µM. For the same molecule, the TGI in assay [7] turned out to be 3.29 µM; in [8], 2.9 µM; in assay [9] it was 3.04 µM.
For the molecule `CSc1ncnc2c1ncn2CCC(=O)OC(C)(C)C`, the TGI in assay [1], in [2], in [3], in assay [4], in [5] and in assay [6] was greater than 100 µM in each case. In addition, the TGI in [8] and in [9] was greater than 100 µM in each case.
For `CCOC(=O)CC[C@H](NC(=O)[C@H](N)Cc1ccc(N(CCCl)CCCl)cc1)C(=O)OCC`, the TGI in [1] is greater than 59.6 µM; in assay [2] it was greater than 53.1 µM; in assay [3], greater than 75.1 µM; in assay [4], greater than 45.2 µM; in assay [5], 36.6 µM; in assay [6], greater than 100 µM. The TGI in assay [7] is 63.2 µM; in assay [8], 19.7 µM; in [9], greater than 72 µM.
With `CC(=O)c1[nH]c(NCc2ccccc2)c(C(=S)Nc2ccccc2)c1N`, the TGI in assay [1] was 40 µM; in assay [2], 33.9 µM; in assay [3], greater than 100 µM; in [4], 79.9 µM; in assay [5] it was 35.3 µM; in assay [6], greater than 100 µM. Moreover, the TGI in [7] was found to be 1.07 µM; in assay [8] it was 55.3 µM; in assay [9], 40.2 µM.
As to `COC(=O)C1=C(C(=O)NNc2ccccc2)N(c2cccnc2Cl)C(c2ccccc2)=CC1c1ccccc1` (stereo unspecified), the TGI in assay [1], in assay [2], in [3], in assay [4], in assay [5] and in [6] was greater than 100 µM throughout. Also, the TGI in assay [7] was 76.6 µM; in [8], greater than 100 µM; in [9] it was greater than 100 µM.
With `Cc1[nH]nc(C(F)(F)F)c1N=NN1CCOCC1`, the TGI in [1] was determined as 28.5 µM; in [2], 26 µM; in assay [3], 24.8 µM; in [4], 15.1 µM; in assay [5] it was 6.18 µM; in [6], 2.77 µM. For the same molecule, the results for the TGI in assay [7], in assay [8] and in assay [9] were 27.1 µM, 26.8 µM and 30.4 µM, respectively.
For `COc1ccc2cc(/C=N/NC(=O)Nc3ccccc3)ccc2c1`, the TGI in assay [1], in assay [2], in [3], in assay [4], in assay [5] and in assay [6] was greater than 100 µM each time. The TGI in assay [7] and in assay [9] was greater than 100 µM each time.
With `CC(O)C1(CNc2cc(Cl)nc(N)n2)CCC1` (stereo unspecified), the TGI in [1], in assay [2], in assay [3], in assay [4], in [5] and in assay [6] was greater than 100 µM each time. Besides, the TGI in [7] and in assay [9] was greater than 100 µM each time.
For `COc1ccc(/C=C2\N=C(SC)N(CN3CCOCC3)C2=O)cc1`, the TGI in assay [1] is greater than 100 µM; in assay [2] it was greater than 100 µM; in assay [3], greater than 100 µM; in [4], 78.2 µM; in assay [5] it was greater than 100 µM; in assay [6], greater than 100 µM. In addition, the TGI in assay [7], in assay [8] and in assay [9] was greater than 100 µM in each case.
With `O=[N+]([O-])/C(C(Cl)=C(Cl)Cl)=C(/Cl)Sc1ccccc1`, the TGI is 9.33 µM in assay [1]; 3.29 µM in assay [2]; 4.66 µM in assay [3]; 3.75 µM in [4]; 0.318 µM in [5]; 2.38 µM in assay [6]. Also, the TGI in [7] is 27.4 µM; in assay [8], 5.71 µM; in assay [9] it was 24.3 µM.
Turning to `CC#CCOC(=O)c1ccccc1OC(C)=O`, the TGI in assay [1], in assay [2], in [3], in [4], in [5] and in [6] was greater than 100 µM in each case. Also, the TGI in assay [7], in assay [8] and in assay [9] was greater than 100 µM in each case.
Regarding `CCOC(=O)CN1C(=O)c2ccc(NC(=O)C(=O)O)cc2S1(=O)=O`, the TGI in assay [1], in assay [2], in [3], in [4], in assay [5] and in [6] was greater than 100 µM throughout. The TGI in [7], in assay [8] and in [9] was greater than 100 µM each time.
`O=C(O)C(NCc1ccccc1)C(NCc1ccccc1)C(=O)O` (stereo unspecified): the TGI in [1], in [2], in [4], in assay [5], in assay [6] and in assay [7] was greater than 100 µM throughout. The TGI in assay [8] and in [9] was greater than 100 µM in each case.
Turning to `CN1CCN(C(=S)N2CCN(C)CC2)CC1`, the TGI is greater than 100 µM in assay [1]; greater than 100 µM in [2]; greater than 100 µM in assay [3]; greater than 100 µM in assay [4]; greater than 100 µM in assay [5]; 0.983 µM in assay [6]. Besides, the TGI in [7], in assay [8] and in assay [9] was greater than 100 µM each time.
Turning to `CN(C)CCCC12CCCCC1=Nc1ccccc12` (stereo unspecified), the TGI in [1] is greater than 100 µM; in [2] it was greater than 100 µM; in assay [3], greater than 100 µM; in assay [4], greater than 100 µM; in [5], 76.3 µM; in [6], 69.2 µM. Further, the TGI in assay [7], in assay [8] and in assay [9] was greater than 100 µM each time.
For the molecule `Nc1nc(N)c2c3c(cnc2n1)CC(c1ccccc1)CC3` (stereo unspecified), the TGI is 76.7 µM in [1]; greater than 100 µM in assay [2]; greater than 100 µM in assay [3]; 41.9 µM in assay [4]; 24.8 µM in assay [5]; 66.1 µM in assay [6]. Further, the values for the TGI in assay [7], in assay [8] and in assay [9] were greater than 100 µM, 58.5 µM and greater than 100 µM, respectively.
Take `O=c1c(/C=C/c2c(O)ccc3ccccc23)nnc2sc(-c3cccc(Br)c3)nn12`: the TGI in assay [1] was greater than 100 µM; in assay [2], greater than 100 µM; in assay [3], greater than 100 µM; in assay [4], 31.9 µM; in assay [5], 26.6 µM; in [6], 41.1 µM. The TGI in assay [7] and in assay [8] was greater than 100 µM throughout.
With `CC(=O)Oc1ccc2c(C)cc(=O)oc2c1OC(C)=O`, the TGI in assay [1], in [2], in [3], in [4], in [6] and in assay [7] was greater than 100 µM in each case. The TGI in [8] and in [9] was greater than 100 µM in each case.
As to `O=C1C(c2c(O)[nH]c3ccc(F)cc23)=Nc2ccccc21`, the TGI in assay [1], in assay [2], in assay [3], in assay [6], in [7] and in assay [8] was greater than 100 µM in each case. The molecule also registered a TGI in assay [9] greater than 100 µM.
Regarding `COc1ccc(P2(=S)OC(C)(C)C(C)(C)O2)cc1`, the TGI in assay [1], in assay [2], in assay [3], in assay [4], in assay [5] and in [6] was greater than 100 µM in each case. Besides, the TGI in [7] and in assay [9] was greater than 100 µM throughout.
In the case of `O=C(/C=C/c1cc2ccccc2o1)N1CCN(c2ccccn2)CC1`, the TGI in assay [1], in assay [2], in assay [3], in assay [4], in assay [5] and in assay [6] was greater than 100 µM throughout. In addition, the TGI in assay [7] and in [8] was greater than 100 µM each time.
Regarding `CC(C)(C)OC(=O)[C@H]1CCC(=S)N1Cc1ccccc1`, the TGI in assay [2], in assay [3], in assay [4], in [5], in assay [6] and in assay [7] was greater than 100 µM in each case. The molecule further came in with a TGI in [9] greater than 100 µM.
As to `O=[N+]([O-])c1ccc2c(c1)C1=C(CO2)Cc2ccccc2O1`, the TGI in [1] is greater than 100 µM; in assay [2], 80.5 µM; in assay [3], 38.6 µM; in assay [4], greater than 100 µM; in assay [6], greater than 100 µM; in assay [7] it was greater than 100 µM. For the same molecule, the TGI is 63.5 µM in assay [8] and greater than 100 µM in [9].
As for `O=C1/C(=C/c2ccccc2S)N=C(c2ccccc2)N1c1nc2c(Cl)cc(Cl)cc2s1`, the TGI in assay [1] is 47.2 µM; in assay [2], 48.2 µM; in assay [3], 51.6 µM; in assay [4], 73.8 µM; in assay [5], 42.6 µM; in assay [6], 34 µM. In addition, the results for the TGI in assay [7] and in assay [8] were 52.9 µM and greater than 100 µM, respectively.
Consider `O=C(O)[C@@H]1CCS(=O)(=O)N1`, for which the TGI in assay [1], in assay [2], in assay [3], in assay [4], in [5] and in [6] was greater than 100 µM each time. The TGI in assay [7] and in assay [8] was greater than 100 µM each time.
Regarding `CCOC(=O)c1nnc2c(C(=O)OCC)c3ccccc3n2c1N`, the TGI was greater than 100 µM in assay [1]; greater than 100 µM in [2]; greater than 100 µM in [3]; greater than 100 µM in assay [4]; 5.52 µM in [5]; greater than 100 µM in assay [6]. Moreover, the TGI in assay [7] and in assay [8] was greater than 100 µM each time.
For the molecule `NNC(=O)c1n[nH]nc1C(=O)NN`, the TGI in assay [1], in assay [2], in assay [3], in [5], in [6] and in assay [7] was greater than 100 µM throughout. This molecule displayed a TGI in [8] greater than 100 µM.
Regarding `Nc1ncnc2c1ncn2[C@@H]1C[C@@H]1CO`, the TGI in assay [1], in assay [2], in [3], in assay [5], in [6] and in assay [7] was greater than 100 µM each time. In assay [9], the TGI is greater than 100 µM.
